These results are taken from publication PMC13386468 (ACS Chemical Biology, 2025).

Read-outs that look alike come from different tables or passages of the source.

Series [1] has as its system T1, Plasmodium berghei Liver-stage PbLuc.
T1 construct: PbLuc (luciferase reporter)
The series can be described thus: microbe, parasite or virus in culture. More on the design: liver-stage Plasmodium berghei luciferase inhibition assay. The text has this:
(§1) Moderate activity was also observed against immature and late-stage gametocytes, in the low micromolar range, as well as against liver stages, in the submicromolar range (Table and Supplementary Table S3).

Series [2] concerns the target T2, Serine/threonine protein kinase ; PF3D7_0605300 ; C6KSQ1 (Plasmodium falciparum, UniProt C6KSQ1).
T2 sequence (C6KSQ1 1-353): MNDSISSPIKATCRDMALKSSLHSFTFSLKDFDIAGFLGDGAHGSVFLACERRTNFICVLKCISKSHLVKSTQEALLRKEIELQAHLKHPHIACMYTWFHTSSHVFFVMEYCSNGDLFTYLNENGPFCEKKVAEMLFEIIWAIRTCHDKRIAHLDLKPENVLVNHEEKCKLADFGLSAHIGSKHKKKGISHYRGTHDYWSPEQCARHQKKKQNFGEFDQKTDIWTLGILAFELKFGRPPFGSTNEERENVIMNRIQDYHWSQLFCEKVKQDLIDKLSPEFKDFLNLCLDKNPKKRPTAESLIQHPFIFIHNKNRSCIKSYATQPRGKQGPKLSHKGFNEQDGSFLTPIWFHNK
The series can be described thus: biochemical. The conditions noted are these: Kdapp, apparent Kd, Kinobeads competition. Also noted: species or system Plasmodium falciparum asexual blood stage lysate; Kinobeads competitive pulldown from asexual blood stage P. falciparum extract, TMT quantitative mass spectrometry, apparent Kd. The source says: Eluted kinases are quantified in a dose-dependent manner via mass spectrometry. […] Data and error bars represent the mean and SD from two independent experiments. […] Data are plotted as the mean with error bars representing the SEM where N,n = 3,2.

Series [3] deals with T3, cAMP-dependent protein kinase catalytic subunit (PfPKAc, PF3D7_0934800) (Plasmodium falciparum, UniProt Q7K6A0).
T3 construct: with PfPKAr (PF3D7_1223100)
T3 sequence (Q7K6A0 1-342): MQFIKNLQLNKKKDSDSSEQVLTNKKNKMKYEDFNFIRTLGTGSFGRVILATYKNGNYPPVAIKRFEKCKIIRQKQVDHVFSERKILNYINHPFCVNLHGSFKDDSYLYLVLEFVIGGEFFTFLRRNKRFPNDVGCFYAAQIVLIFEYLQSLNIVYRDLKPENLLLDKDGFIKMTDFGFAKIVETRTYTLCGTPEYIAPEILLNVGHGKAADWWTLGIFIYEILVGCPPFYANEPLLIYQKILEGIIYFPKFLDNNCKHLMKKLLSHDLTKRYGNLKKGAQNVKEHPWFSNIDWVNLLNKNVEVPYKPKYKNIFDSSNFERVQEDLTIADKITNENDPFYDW
T3 sequence (Q7KQK0 1-441 partner): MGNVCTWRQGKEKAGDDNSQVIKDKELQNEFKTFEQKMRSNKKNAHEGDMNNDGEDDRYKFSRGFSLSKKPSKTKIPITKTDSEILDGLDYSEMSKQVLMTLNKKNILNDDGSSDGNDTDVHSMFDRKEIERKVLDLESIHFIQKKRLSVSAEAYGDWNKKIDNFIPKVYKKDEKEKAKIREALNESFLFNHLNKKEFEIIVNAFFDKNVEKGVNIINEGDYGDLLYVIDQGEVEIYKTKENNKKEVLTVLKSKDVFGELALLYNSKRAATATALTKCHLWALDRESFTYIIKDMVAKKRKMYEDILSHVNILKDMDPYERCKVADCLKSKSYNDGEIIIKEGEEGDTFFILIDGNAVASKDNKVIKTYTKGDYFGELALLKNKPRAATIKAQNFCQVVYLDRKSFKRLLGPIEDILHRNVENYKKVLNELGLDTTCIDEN
Nature of the series: Kinobead competitive pulldown from asexual blood stage parasite lysate, mass spectrometry. The format is biochemical.

Series [4] has as its system T4, Plasmodium falciparum PfDd2.
T4 construct: Dd2
The series can be described thus: microbe, parasite or virus in culture. Also noted: species or system P. falciparum asexual blood stages; asexual blood stage growth inhibition, pLDH read-out. The conditions noted are these: read-out: Mean IC50 ± SEM (µM), pLDH. The method, then: (§2) Parasite growth inhibition was calculated relative to untreated controls, and IC50 values were determined by fitting dose-response curves. Each assay plate included appropriate growth, vehicle, and positive control wells.

For series [5], the target named is Aurora-related kinase 1 (PfArk1, PF3D7_0605300) (Plasmodium falciparum, UniProt C6KSQ1). The series can be described thus: KinaseSeeker competition binding assay with recombinant kinase; also Kinobead competition (Kd app […]) and conditional knockdown sensitization ([…]).
In series [6] the target is T5, glycogen synthase kinase 3 β (PfGSK3β, PF3D7_0312400) (Plasmodium falciparum, UniProt O77344).
T5 sequence (O77344 1-440): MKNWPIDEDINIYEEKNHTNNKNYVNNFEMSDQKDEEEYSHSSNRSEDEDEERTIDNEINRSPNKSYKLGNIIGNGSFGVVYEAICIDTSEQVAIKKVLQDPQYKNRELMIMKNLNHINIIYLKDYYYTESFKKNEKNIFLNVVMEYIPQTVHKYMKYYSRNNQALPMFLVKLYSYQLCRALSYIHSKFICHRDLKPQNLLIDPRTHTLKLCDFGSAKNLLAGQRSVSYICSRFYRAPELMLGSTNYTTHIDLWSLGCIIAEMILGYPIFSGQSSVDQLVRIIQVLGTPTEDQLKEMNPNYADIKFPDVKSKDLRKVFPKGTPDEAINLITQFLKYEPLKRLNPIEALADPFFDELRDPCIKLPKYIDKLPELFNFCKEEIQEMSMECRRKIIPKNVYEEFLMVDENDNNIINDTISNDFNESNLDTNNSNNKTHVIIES
The series can be described thus: KinaseSeeker competition binding assay with recombinant kinase; also Kinobead competition (IC50 […]). The conditions noted are these: read-out: IC50 value ± SEM or SD ^c.

Another series in a line: in vitro. More on the design: HepG2 liver cell cytotoxicity. As to conditions: human, hepg2 cells; read-out: Liver cytotoxicity HepG2 IC50.
Text: as §1

Series [7] relates to T6, Plasmodium falciparum PfRF7.
T6 construct: RF7
The series can be described thus: microbe, parasite or virus in culture. Also noted: species or system P. falciparum asexual blood stages; asexual blood stage growth inhibition, SYBR Green I read-out. As to conditions: read-out: Mean IC50 ± SEM (µM), SYBR Green I. The procedure: as §2

In series [8] the test system is T7, Plasmodium falciparum PfNF54 (WT).
T7 construct: NF54
The series can be described thus: microbe, parasite or virus in culture. As to conditions: read-out: Mean IC50 ± SEM (µM), SYBR Green I. More on the design: species or system P. falciparum asexual blood stages; asexual blood stage growth inhibition, SYBR Green I read-out. The procedure:
as §2

For series [9], the system named is T8, Plasmodium falciparum PfCam3.II.
T8 construct: Cam3.II
Nature of the series: microbe, parasite or virus in culture. Also noted: species or system P. falciparum asexual blood stages; asexual blood stage growth inhibition, SYBR Green I read-out. As to conditions: read-out: Mean IC50 ± SEM (µM), SYBR Green I. The method, then: as §2

Series [10] relates to T7, Plasmodium falciparum PfNF54 (WT). The series can be described thus: microbe, parasite or virus in culture. More on the design: species or system P. falciparum asexual blood stages; asexual blood stage growth inhibition, modified [3H]-hypoxanthine incorporation. As to conditions: read-out: PfNF54 control (–Shield-1) IC50 (nM).
For series [11], the target named is T9, 3-phosphoinositide-dependent protein kinase 1 (PfPDK1, PF3D7_1121900) (Plasmodium falciparum, UniProt Q8IIE7).
T9 sequence (Q8IIE7 1-525): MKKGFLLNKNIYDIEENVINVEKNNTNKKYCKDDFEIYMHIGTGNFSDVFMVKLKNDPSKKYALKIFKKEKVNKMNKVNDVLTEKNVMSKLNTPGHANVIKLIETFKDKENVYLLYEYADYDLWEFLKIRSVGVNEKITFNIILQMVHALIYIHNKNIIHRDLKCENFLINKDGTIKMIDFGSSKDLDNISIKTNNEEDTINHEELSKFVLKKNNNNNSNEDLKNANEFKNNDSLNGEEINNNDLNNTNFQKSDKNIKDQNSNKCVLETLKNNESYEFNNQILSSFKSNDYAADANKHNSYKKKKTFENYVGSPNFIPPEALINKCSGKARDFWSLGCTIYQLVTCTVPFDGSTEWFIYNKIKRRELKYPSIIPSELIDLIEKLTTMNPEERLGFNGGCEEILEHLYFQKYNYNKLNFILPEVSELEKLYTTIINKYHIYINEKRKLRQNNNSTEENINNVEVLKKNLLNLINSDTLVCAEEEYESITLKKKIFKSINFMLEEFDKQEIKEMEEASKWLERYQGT
The series can be described thus: Kinobead competitive pulldown from asexual blood stage parasite lysate, mass spectrometry. The format is biochemical.

The target of series [12] is T10, calcium-dependent protein kinase 1 (PfCDPK1, PF3D7_0217500) (Plasmodium falciparum, UniProt P62344).
T10 construct: gene CDPK1
T10 sequence (P62344 2-524): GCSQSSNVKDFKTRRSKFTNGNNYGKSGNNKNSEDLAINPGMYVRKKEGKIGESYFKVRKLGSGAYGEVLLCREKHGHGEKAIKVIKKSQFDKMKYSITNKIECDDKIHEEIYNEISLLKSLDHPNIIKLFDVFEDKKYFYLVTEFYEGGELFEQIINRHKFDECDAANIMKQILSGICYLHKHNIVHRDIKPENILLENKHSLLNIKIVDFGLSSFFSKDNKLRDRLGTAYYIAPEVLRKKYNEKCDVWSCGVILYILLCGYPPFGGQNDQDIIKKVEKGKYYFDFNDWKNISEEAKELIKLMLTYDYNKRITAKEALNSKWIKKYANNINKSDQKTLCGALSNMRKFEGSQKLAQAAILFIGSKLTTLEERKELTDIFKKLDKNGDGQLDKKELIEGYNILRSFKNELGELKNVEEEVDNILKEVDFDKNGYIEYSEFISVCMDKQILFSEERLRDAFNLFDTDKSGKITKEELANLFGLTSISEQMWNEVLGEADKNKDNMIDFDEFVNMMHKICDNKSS
The series is described as above. The format is biochemical.

Regarding `O=c1[nH]c2ccc(Cl)cc2c(N[C@@H]2CN3CCC2CC3)c1-c1nc2ccccc2[nH]1` [CHIR-124], the IC50 came out at 310 nM in series [1]; 0.44 ± 0.05 µM in series [4]; 380 ± 70 nM in series [5]; 200 ± 20 nM in series [6]; 0.01 ± 0.001 µM in [7]; 0.033 ± 0.002 µM in series [8]. The IC50 was determined as 0.016 ± 0.002 µM in series [9] and 36 ± 7 nM in series [10]. For the same compound, the Kd in series [2] (Experiment ID=X048537) came to 180 nM; in series [2] (Experiment ID=X048538), 156 nM; in series [3], 610 nM; in [11], 100 nM; in series [12], 40 nM. The CC50 in “in vitro” stood at 4300 nM.

As a reminder, the IC50 is the concentration at which inhibition is half-maximal.
